Patent US9115127B2 (AMGEN INC., priority 2010, dated 2015)

These molecules were tested against T1, wild-type human ALK (cytoplasmic domain, amino acids 1058-1620, N-terminal GST fusion) (Homo sapiens, UniProt Q9UM73) (assay: ALK Inhibition in Enzyme Assay (Lance TR-FRET kinase assay)). Conditions: not given.
T1 construct: The cytoplasmic domain (amino acids 1058-1620) of wild-type human ALK; GST (N); made in house; host or cells: SF9 insect cells
Format: biochemical
Method in brief: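 Purified enzyme phosphorylated a biotinylated peptide substrate for 90 minutes at room temperature. Reactions were stopped with 20 mM EDTA in 50 mM Tris (pH 7.5), 100 mM NaCl, 0.05% BSA, 0.1% Tween-20. Phosphopeptide was detected by TR-FRET with SA-APC and Eu-W1024 anti-phosphotyrosine antibody PT66, excitation 320 nm.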

T1 sequence (Q9UM73 1058-1620): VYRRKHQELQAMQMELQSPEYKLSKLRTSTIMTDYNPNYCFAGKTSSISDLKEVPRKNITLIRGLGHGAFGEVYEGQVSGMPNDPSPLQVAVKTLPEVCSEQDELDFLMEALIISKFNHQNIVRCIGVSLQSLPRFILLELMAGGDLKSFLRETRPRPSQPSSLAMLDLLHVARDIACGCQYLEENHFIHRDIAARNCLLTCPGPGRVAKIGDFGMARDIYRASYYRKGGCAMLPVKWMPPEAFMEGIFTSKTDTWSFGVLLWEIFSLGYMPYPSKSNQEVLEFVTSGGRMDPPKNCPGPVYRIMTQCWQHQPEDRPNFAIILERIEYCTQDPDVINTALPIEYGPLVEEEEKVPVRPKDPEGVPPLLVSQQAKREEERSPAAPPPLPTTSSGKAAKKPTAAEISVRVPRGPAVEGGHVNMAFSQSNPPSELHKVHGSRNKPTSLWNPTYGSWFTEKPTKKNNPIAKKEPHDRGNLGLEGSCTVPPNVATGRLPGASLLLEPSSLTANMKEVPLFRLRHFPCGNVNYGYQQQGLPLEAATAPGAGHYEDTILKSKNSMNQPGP

Row | IC50 | SMILES
1 | < 0.05 µM | CC(C)NC(=O)[C@H]1CC[C@@H](n2/c(=N/C(=O)c3ccc(F)cc3)[nH]c3ccc(N4CCS(=O)(=O)CC4)cc32)CC1 [Example 239, (E)-4-Fluoro-N-(1-(cis-4-(isopropylcarbamoyl)cyclohexyl)-6-(thiomorpholine 1,1-dioxide)-1H-benzo[d]imidazol-2(3H)-ylidene)benzamide]
2 | 1 to 5 µM | N#C[C@]1(c2ccccn2)C[C@@H](n2/c(=N/C(=O)c3ccc(F)cc3)[nH]c3cnc(OCCN4CCCCC4)cc32)C1 [Example 240, (E)-N-(1-(trans-3-Cyano-3-(pyridin-2-yl)cyclobutyl)-6-(2-(piperidin-1-yl)ethoxy)-1H-imidazo[4,5-c]pyridin-2(3H)-ylidene)-4-fluorobenzamide]
3 | 0.1 to 1 µM | N#C[C@]1(c2ccccn2)C[C@H](n2/c(=N/C(=O)c3ccc(F)cc3)[nH]c3cnc(OCCN4CCCCC4)cc32)C1 [Example 241, (E)-N-(1-(cis-3-Cyano-3-(pyridin-2-yl)cyclobutyl)-6-(2-(piperidin-1-yl)ethoxy)-1H-imidazo[4,5-c]pyridin-2(3H)-ylidene)-4-fluorobenzamide]
4 | 0.1 to 1 µM | CC(C)(O)C1CCN(Cc2ccc3[nH]/c(=N\C(=O)c4ccc(F)cc4)n([C@H]4CC[C@]5(CC4)NC(=O)NC5=O)c3c2)CC1 [Example 242, (E)-N-(1-((5S,8S)-2,4-Dioxo-1,3-diazaspiro[4.5]decan-8-yl)-6-((4-(2-hydroxypropan-2-yl)piperidin-1-yl)methyl)-1H-benzo[d]imidazol-2(3H)-ylidene)-4-fluorobenzamide]
5 | < 0.05 µM | CC(C)(O)C1CCN(Cc2ccc3[nH]/c(=N\C(=O)c4ccc(F)cc4)n([C@H]4CC[C@@H](C(=O)NC5CNC5)CC4)c3c2)CC1 [Example 243]
6 | 0.05 to 0.1 µM | C=CCNS(=O)(=O)c1cccc(C(=O)/N=c2\[nH]c3cnc(OCCN4CCCCC4)cc3n2[C@H]2CC[C@H](C(N)=O)CC2)c1 [Example 244, (E)-3-(N-Allylsulfamoyl)-N-(1-(trans-4-carbamoylcyclohexyl)-6-(2-(piperidin-1-yl)ethoxy)-1H-imidazo[4,5-c]pyridin-2(3H)-ylidene)benzamide]
7 | 0.1 to 1 µM | CNC(=O)[C@H]1CC[C@H](n2/c(=N/C(=O)c3ccc(F)cc3)[nH]c3cnc(OCCN4CCCCC4)cc32)CC1 [Example 246, (E)-4-Fluoro-N-(1-(trans-4-(methylcarbamoyl)cyclohexyl)-6-(2-(piperidin-1-yl)ethoxy)-1H-imidazo[4,5-c]pyridin-2(3H)-ylidene)benzamide]
8 | 1 to 5 µM | NC(=O)[C@H]1CC[C@H](n2/c(=N/C(=O)c3cc(F)cc(F)c3)[nH]c3cnc(OCCN4CCCCC4)cc32)CC1 [Example 247, (E)-N-(1-(trans-4-Carbamoylcyclohexyl)-6-(2-(piperidin-1-yl)ethoxy)-1H-imidazo[4,5-c]pyridin-2(3H)-ylidene)-3,5-difluorobenzamide]
9 | 1 to 5 µM | NC(=O)[C@H]1CC[C@H](n2/c(=N/C(=O)c3ccc(F)cc3)[nH]c3cnc(OCCN4CCCCC4)cc32)CC1 [Example 248, (E)-N-(1-(trans-4-Carbamoylcyclohexyl)-6-(2-(piperidin-1-yl)ethoxy)-1H-imidazo[4,5-c]pyridin-2(3H)-ylidene)-4-fluorobenzamide]
10 | 1 to 5 µM | CNC(=O)[C@H]1CC[C@H](n2/c(=N/C(=O)c3cc(F)cc(F)c3)[nH]c3cnc(OCCN4CCCCC4)cc32)CC1 [Example 249, (E)-3,5-Difluoro-N-(1-(trans-4-(methylcarbamoyl)cyclohexyl)-6-(2-(piperidin-1-yl)ethoxy)-1H-imidazo[4,5-c]pyridin-2(3H)-ylidene)benzamide]
11 | 0.1 to 1 µM | N#C[C@]1(c2cccc(Br)c2)C[C@@H](n2/c(=N/C(=O)c3ccc(F)cc3)[nH]c3cnc(OCCN4CCCCC4)cc32)C1 [Example 250, (E)-N-(1-(trans-3-(3-Bromophenyl)-3-cyanocyclobutyl)-6-(2-(piperidin-1-yl)ethoxy)-1H-imidazo[4,5-c]pyridin-2(3H)-ylidene)-4-fluorobenzamide]
12 | 0.05 to 0.1 µM | NC(=O)[C@]1(c2cccc(Br)c2)C[C@@H](n2/c(=N/C(=O)c3ccc(F)cc3)[nH]c3cnc(OCCN4CCCCC4)cc32)C1 [Example 251, (E)-N-(1-(trans-3-(3-Bromophenyl)-3-carbamoylcyclobutyl)-6-(2-(piperidin-1-yl)ethoxy)-1H-imidazo[4,5-c]pyridin-2(3H)-ylidene)-4-fluorobenzamide]
13 | 1 to 5 µM | NC(=O)[C@]1(c2cccc(Br)c2)C[C@H](n2/c(=N/C(=O)c3ccc(F)cc3)[nH]c3cnc(OCCN4CCCCC4)cc32)C1 [Example 252, (E)-N-(1-(cis-3-(3-Bromophenyl)-3-carbamoylcyclobutyl)-6-(2-(piperidin-1-yl)ethoxy)-1H-imidazo[4,5-c]pyridin-2(3H)-ylidene)-4-fluorobenzamide]

Same assay, conditions: 2 nM enzyme, ATP 40 μM (Km apparent), 90 minutes at room temperature; mean of three replicates

Row | IC50 | SMILES
14 | 0.05 to 0.1 µM | C=CCNS(=O)(=O)c1cccc(C(=O)/N=c2\[nH]c3cnc(OCCN4CCCCC4)cc3n2C2CCC(C(=O)NC)CC2)c1 [Example 245, (E)-3-(N-Allylsulfamoyl)-N-(1-((1R,4R)-4-(methylcarbamoyl)cyclohexyl)-6-(2-(piperidin-1-yl)ethoxy)-1H-imidazo[4,5-c]pyridin-2(3H)-ylidene)benzamide]
